Measurements published in US20240207263A1, “SELECTIVE MODULATORS OF ATAXIA TELA[…] (ATM) KINASE AND USES THEREOF” (priority 2021, published 2024).

Legend:
aldehyde oxidase (AO) [1] = biological target: T1, aldehyde oxidase (AO) (Homo sapiens (Human), UniProt Q06278); experiment: in vitro
Experimental: All calculations were carried out using Microsoft Excel. Peak areas were determined from extracted ion chromatograms. The slope value, k, was determined by linear regression of the natural logarithm of the remaining percentage of the parent drug vs. incubation time curve.

[2] = cited from earlier work; for clearance in humans: Zientek et al. 2010
aldehyde oxidase (AO) [3] = biological target: T1, aldehyde oxidase (AO); details: reference compounds of the human liver cytosolic system; cited from earlier work
ATM = ATM (Homo sapiens (Human), UniProt Q13315); experiment: biochemical; type: biochemical; details: read-out: ATM IC50
Sequence of ATM (Q13315 whole entry, looked up): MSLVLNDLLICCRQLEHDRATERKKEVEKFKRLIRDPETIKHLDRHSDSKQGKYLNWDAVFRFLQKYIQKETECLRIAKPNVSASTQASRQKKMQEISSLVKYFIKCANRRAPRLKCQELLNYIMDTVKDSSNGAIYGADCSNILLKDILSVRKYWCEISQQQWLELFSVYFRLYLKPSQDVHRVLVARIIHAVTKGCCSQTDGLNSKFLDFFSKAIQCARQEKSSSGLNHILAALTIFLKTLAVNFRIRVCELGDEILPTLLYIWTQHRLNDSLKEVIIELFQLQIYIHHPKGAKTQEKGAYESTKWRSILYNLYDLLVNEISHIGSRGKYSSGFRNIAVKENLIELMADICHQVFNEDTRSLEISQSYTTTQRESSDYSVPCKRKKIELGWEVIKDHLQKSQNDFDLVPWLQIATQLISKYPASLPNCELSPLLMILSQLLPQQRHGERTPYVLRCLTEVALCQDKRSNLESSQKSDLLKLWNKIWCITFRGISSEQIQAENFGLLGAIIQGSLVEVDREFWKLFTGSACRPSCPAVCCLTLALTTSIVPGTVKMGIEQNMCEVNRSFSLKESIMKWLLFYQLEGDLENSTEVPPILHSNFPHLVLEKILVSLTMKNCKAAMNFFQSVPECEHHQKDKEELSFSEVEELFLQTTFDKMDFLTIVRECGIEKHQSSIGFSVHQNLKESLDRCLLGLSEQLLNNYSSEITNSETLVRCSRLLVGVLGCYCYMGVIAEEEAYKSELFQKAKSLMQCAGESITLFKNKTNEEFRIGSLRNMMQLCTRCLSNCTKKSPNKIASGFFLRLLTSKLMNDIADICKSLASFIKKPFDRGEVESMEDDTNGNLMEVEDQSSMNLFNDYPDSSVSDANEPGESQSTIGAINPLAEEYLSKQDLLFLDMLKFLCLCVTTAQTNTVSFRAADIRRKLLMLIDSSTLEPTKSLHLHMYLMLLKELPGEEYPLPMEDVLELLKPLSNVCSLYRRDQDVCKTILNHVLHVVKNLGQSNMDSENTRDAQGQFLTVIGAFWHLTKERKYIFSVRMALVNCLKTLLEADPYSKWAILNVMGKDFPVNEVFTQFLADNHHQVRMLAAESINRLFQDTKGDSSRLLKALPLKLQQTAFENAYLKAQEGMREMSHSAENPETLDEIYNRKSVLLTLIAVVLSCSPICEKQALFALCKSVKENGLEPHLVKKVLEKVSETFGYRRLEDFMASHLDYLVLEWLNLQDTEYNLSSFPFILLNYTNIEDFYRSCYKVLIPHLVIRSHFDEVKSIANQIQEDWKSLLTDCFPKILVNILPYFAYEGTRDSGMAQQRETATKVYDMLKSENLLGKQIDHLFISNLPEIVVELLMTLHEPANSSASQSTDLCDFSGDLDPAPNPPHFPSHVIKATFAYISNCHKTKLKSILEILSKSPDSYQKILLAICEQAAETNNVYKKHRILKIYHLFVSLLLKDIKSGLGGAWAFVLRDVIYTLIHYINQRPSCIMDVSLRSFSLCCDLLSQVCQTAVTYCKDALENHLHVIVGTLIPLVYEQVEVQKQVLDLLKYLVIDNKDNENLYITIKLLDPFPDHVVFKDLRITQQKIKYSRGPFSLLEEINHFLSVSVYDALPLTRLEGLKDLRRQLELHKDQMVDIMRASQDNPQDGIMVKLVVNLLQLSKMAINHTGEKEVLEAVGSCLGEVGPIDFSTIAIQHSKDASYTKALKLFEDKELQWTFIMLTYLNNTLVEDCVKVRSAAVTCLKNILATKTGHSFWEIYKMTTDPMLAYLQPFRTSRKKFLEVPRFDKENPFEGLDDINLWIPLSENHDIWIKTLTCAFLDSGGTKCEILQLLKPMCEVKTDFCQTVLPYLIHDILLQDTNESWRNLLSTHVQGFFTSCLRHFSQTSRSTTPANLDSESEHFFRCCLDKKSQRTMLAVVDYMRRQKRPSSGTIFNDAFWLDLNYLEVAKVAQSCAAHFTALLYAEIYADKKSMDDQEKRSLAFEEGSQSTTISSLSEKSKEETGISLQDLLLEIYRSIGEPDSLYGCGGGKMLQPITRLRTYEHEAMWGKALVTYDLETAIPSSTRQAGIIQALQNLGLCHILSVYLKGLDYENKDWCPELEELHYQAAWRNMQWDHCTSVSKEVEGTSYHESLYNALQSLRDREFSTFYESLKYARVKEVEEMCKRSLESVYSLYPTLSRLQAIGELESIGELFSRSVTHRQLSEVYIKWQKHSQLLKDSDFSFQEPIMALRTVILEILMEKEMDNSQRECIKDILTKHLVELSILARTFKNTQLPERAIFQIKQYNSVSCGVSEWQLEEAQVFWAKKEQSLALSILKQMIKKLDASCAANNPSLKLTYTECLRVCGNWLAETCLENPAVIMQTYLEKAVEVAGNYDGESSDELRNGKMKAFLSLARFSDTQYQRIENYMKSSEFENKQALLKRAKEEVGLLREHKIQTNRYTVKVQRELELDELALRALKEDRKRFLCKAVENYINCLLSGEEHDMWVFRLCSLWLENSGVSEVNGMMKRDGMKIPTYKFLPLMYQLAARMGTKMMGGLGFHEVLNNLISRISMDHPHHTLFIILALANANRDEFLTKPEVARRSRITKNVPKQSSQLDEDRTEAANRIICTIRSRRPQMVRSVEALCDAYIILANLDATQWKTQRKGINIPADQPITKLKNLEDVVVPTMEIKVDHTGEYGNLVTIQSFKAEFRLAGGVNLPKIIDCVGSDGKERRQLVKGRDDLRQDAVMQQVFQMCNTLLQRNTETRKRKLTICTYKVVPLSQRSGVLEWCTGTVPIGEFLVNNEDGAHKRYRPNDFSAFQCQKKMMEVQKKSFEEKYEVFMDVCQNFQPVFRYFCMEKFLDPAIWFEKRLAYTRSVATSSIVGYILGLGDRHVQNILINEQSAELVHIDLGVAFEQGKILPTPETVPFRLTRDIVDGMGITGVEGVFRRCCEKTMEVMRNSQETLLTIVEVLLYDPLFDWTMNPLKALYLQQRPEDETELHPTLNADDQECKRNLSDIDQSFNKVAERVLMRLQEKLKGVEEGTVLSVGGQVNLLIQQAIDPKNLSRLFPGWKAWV
Excerpt: Assay a): ATM Biochemical Potency
Data was collected by Caliper.

ATR = ATR (Homo sapiens (Human), UniProt Q13535); experiment: ATR biochemical potency assay (Assay b)
Experimental: Assay b): ATR Biochemical Potency
The plate was incubated at room temperature for 10 minutes. 2× peptide solutions were prepared with FAM-labeled peptide and ATP in the 1× kinase base buffer. […] 40 μl of stop buffer was added to stop reaction. Data were collected by Caliper.

DNA-PK = DNA-PK (Homo sapiens (Human), UniProt P78527); experiment: DNA-PK biochemical assay (Assay e)
Experimental: Assay e): DNA-PK Biochemical Assay
The final concentration: Substrate 0.2 ug/ml and ATP 20 uM. […] The plate was equilibrated for 2 hr at room temperature.

[4] = biological target: ATM (phospho-ATM Ser1981) in SN38 treated HT-29 cells (Homo sapiens (Human), UniProt Q13315); experiment: cell-based; details: HT-29 cells, SN-38; read-out: SN-38 HT-29 cellular IC50
Sequence of ATM (phospho-ATM Ser1981) in SN38 treated HT-29 cells (Q13315 whole entry, looked up): as above
Experimental: Assay g): ATM SN-38 HT-29 Cellular Potency
SN38 causes single strand DNA breaks (SSBs) which are converted to double strand breaks (DSBs) during replication. ATM plays role of repairing DSBs. Inhibition of ATM was evaluated in SN38 treated HT-29 cells (ATCC, Cat #HTB-38) by high-Content Imaging System
The graphical views were then generated using Prism 7.0 (Graphpad).

mTOR = mTOR (Homo sapiens (Human), UniProt P42345); experiment: mTOR biochemical potency assay (Assay d); details: read-out: mTor IC50
Experimental: Assay d): mTOR Biochemical Potency
Solution of mTOR enzymes (Millipore, Cat. No. 14-770) was prepared in 1× kinase buffer at 4-fold of the final concentration (final concentration: 6 nM) in the assay. 2.5 μl of kinase solution was added to each well of the 384-well assay plate, which contains 2.5 μl of compounds with serially diluted concentration. 2× substrate solution was prepared with ULight-4E-BP1 (Thr37/46) Peptide (PE, Cat. No. TRF0128-M) and ATP in 1× kinase reaction buffer at 2-fold of the final concentration of each reagent in the assay. 5 μl of substrate solution was added to each well of the assay plate to start reaction. The assay plate was incubated at room temperature for 30 minutes. Detection solution of kinase quench buffer (EDTA) and Eu-anti-phospho-4E-BP1 antibody (Thr37/46) (PE, Cat. No. TRF0216-M) were prepared at 2-fold the desired final concentrations of each reagent in Lance detection buffer. 10 μl of detection solution buffer was added to each well of the assay plate.

PI3Kα (p110α/p85a) = PI3Kα (p110α/p85a) (Homo sapiens (Human), UniProt P42336); experiment: PI3K biochemical potency assay (Assay c), PI3Kα; details: read-out: PI3Kα IC50
Experimental: Assay c): PI3K Biochemical Potency
(§1) 2.5 μl of kinase solution was added to each well of the 384-well assay plate, which contains 2.5 μl of compounds with serially diluted concentration. 2× substrate solution was prepared with PIP2 substrate and ATP in 1× kinase reaction buffer at 2-fold of the final concentration of each reagent in the assay. 5 μl of substrate solution was added to each well of the assay plate to start reaction. The assay plate was incubated at room temperature for 1 hour. 5 μl reaction mix was transferred to a new 384 well plate. 5 μl of ADP-Glo reagent (Promega, Cat. No. v9102/3) was added to each well of the new assay plate to stop the reaction. The plate was shaken slowly and equilibrated for 40 minutes. 10 μl kinase detection reagents were added to each well, which was equilibrated for 60 minutes before read on a plate reader (Envision) for luminescence.

PIK3Cδ = PIK3Cδ (Homo sapiens (Human), UniProt O00329); experiment: PI3K biochemical potency assay (Assay c), PIK3Cδ; details: read-out: PI3Kδ IC50
Experimental: Assay c): PI3K Biochemical Potency
as §1

PIK3Cβ (p110β) = PIK3Cβ (p110β) (Homo sapiens (Human), UniProt P42338); experiment: PI3K biochemical potency assay (Assay c), PIK3Cβ; details: read-out: PI3Kβ IC50
Experimental: Assay c): PI3K Biochemical Potency
as §1

PIK3Cγ (pp110γ) = PIK3Cγ (pp110γ) (Homo sapiens (Human), UniProt P48736); experiment: PI3K biochemical potency assay (Assay c), PIK3Cγ; details: read-out: PI3Kγ IC50
Experimental: Assay c): PI3K Biochemical Potency
as §1

[5] = system: phosp-KAP1 in MCF-7 cells; experiment: phosp-KAP1 MCF-7 cellular potency assay (Assay f); type: cell-based; details: Homo sapiens, MCF7; MCF-7 cells, etoposide; read-out: Etoposide MCF-7 cellular IC50

T1 sequence (Q06278 whole entry): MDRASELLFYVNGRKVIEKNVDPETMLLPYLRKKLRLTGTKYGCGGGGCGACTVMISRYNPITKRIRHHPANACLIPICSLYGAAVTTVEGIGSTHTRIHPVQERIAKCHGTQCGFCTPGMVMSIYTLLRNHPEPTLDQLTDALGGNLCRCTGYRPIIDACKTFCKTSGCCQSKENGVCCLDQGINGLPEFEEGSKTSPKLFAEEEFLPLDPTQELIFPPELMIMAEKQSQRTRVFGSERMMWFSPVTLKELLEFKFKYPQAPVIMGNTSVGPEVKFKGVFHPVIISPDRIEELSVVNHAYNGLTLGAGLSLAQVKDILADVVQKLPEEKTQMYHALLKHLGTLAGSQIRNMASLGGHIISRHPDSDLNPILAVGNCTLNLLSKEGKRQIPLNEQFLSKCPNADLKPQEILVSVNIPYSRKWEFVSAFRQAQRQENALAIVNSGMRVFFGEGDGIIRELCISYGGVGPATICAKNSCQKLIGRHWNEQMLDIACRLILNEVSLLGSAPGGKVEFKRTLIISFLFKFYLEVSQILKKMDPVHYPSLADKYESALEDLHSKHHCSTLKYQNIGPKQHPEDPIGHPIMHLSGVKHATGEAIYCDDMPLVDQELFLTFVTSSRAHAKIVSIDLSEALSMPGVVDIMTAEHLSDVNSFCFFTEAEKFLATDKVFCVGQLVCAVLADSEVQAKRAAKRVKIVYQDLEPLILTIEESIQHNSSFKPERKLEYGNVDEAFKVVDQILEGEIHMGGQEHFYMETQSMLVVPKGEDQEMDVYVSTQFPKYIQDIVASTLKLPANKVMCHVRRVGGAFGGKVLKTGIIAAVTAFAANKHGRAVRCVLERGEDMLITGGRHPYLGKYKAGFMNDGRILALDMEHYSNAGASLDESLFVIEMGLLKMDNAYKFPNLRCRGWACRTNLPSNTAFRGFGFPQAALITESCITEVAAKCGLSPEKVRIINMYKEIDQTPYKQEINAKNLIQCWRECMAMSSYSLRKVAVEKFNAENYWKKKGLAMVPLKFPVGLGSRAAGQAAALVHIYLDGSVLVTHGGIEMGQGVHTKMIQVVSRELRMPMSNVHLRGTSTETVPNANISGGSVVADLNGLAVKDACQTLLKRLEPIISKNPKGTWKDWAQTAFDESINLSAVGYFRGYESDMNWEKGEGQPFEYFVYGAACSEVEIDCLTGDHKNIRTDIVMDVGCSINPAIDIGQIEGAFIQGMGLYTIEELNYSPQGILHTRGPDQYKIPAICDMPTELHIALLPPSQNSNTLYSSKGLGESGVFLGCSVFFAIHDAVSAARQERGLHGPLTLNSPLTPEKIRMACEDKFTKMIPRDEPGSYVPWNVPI

For CC(C)n1c(=O)n(C)c2cnc3cc(F)c(-c4ccc(OCCCN5CCCCC5)nc4)cc3c21 [AZD1390], the AO substrate classification (aldehyde oxidase (AO) [1]; human liver cytosol) was “strong AO substrate”.
In the case of OCCn1cc(-c2cnc3nnn(Cc4ccc5ncccc5c4)c3n2)cn1 [Reference compound 5, PF-04217903], the clearance in humans [2] is given as 6 mL/min/kg and the “clearance in humans corresponding to liver blood flow” value [2] is given as about 30 % liver blood flow.
In the case of OCCn1cc(-c2cnc3nnn(Cc4ccc5ncccc5c4)c3n2)cn1 [PF-04217903, 2-[4-[3-(quinolin-6-ylmethyl)triazolo[4,5-b]pyrazin-5-yl]pyrazol-1-yl]ethanol], the “AO substrate classification (reported)” value (aldehyde oxidase (AO) [3]) is given as “weak AO substrate”.
Work on CO[C@H]1C[C@H](n2c(=O)n(C)c3nnc4ccc(-c5ccc([C@@H](C)OCCN6CCCC6)nc5)cc4c32)C1 [Example 162, 1-(trans-3-methoxycyclobutyl)-3-methyl-8-(6-((R)-1-(2-(pyrrolidin-1-yl)ethoxy)ethyl)pyridin-3-yl)-1,3-dihydro-2H-imidazo[4,5-c]cinnolin-2-one] yielded an IC50 (ATM) of 0.007 µM, an IC50 (ATR) of over 10 µM and an IC50 (DNA-PK) of over 10 µM. The IC50 [4] was 0.0055 µM, the IC50 (mTOR) was over 10 µM and the IC50 (PI3Kα (p110α/p85a)) was over 10 µM. The IC50 (PIK3Cδ) was over 10 µM, the IC50 (PIK3Cβ (p110β)) was over 10 µM and the IC50 (PIK3Cγ (pp110γ)) was over 10 µM.
For CCN(C(C)=O)c1cccc(-c2ccnc3c(C#N)cnn23)c1 [Zaleplon, N-[3-(3-cyanopyrazolo[1,5-a]pyrimidin-7-yl)phenyl]-N-ethylacetamide], the “AO substrate classification (reported)” value (aldehyde oxidase (AO) [3]) is given as “strong AO substrate”.
Compound CC(C)n1c(=O)n(C)c2nnc3ccc(-c4ccc(COCCN5CCC(C)(C)CC5)nc4)cc3c21 [Example 31, 8-(6-((2-(4,4-dimethylpiperidin-1-yl)ethoxy)methyl)pyridin-3-yl)-1-isopropyl-3-methyl-1H-imidazo[4,5-c]cinnolin-2(3H)-one] has an IC50 (ATM) of 0.011 µM, an IC50 (ATR) of over 10 µM and an IC50 (DNA-PK) of over 10 µM. The IC50 [5] was 0.016 µM, the IC50 [4] was 0.029 µM and the IC50 (mTOR) was over 10 µM. For the same compound, the IC50 (PI3Kα (p110α/p85a)) was over 10 µM, the IC50 (PIK3Cδ) was over 10 µM and the IC50 (PIK3Cβ (p110β)) was over 10 µM. For the same compound, the IC50 (PIK3Cγ (pp110γ)) was over 10 µM.
In the case of CCN(C(C)=O)c1cccc(-c2ccnc3c(C#N)cnn23)c1 [Reference compound 4, Zaleplon], the microsomal CLint (aldehyde oxidase (AO) [1]; human, cytosol) is given as 0.893 µL/min/mg, the clearance in humans [2] is given as 16 mL/min/kg and the “clearance in humans corresponding to liver blood flow” value [2] is given as about 80 % liver blood flow.
